# According to patent US20220339143A1, “TAK-925 FOR USE IN TREATING NARCOLEPSY” (Takeda Pharmaceutical Company Limited, priority 2019, published 2022):
# Like-named read-outs stand apart in the source and are kept apart here.
# Assay: Single dose PK in healthy subjects (Cohorts 1, 2, S1 and S2), plasma
# Type: in vivo, human
# Conditions: human, plasma, intravenous
# Procedure: This study investigates (i) the safety and tolerability of Compound A (methyl (2R,3S)-3-((methylsulfonyl)amino)-2-(((cis-4-phenylcyclohexyl)oxy)methyl)piperidine-1-carboxylate) when a single dose given as a 9 hour continuous IV infusion is administered to healthy adults, healthy elderly subjects and patients with narcolepsy type 1 (NT1); (ii) the pharmacokinetics of Compound A when a single dose given as a 9 hour continuous IV infusion is administered to healthy adults, healthy elderly subjects and patients with narcolepsy type 1; and (iii) the pharmacodynamics (PD) effects of Compound A, primarily by evaluation of the sleep latency on MWT when a single dose given as a 9 hour continuous IV infusion is administered to patients with narcolepsy type 1.
# Pharmacokinetics: Concentrations of Compound A in plasma, and CSF, and pharmacokinetics parameters.
# On average, the time to reach the plateau appeared to be approximately 3 to 4 hours after the start of infusion. […] After switching off the IV infusion, Compound A plasma concentrations declined rapidly and in a biphasic manner with a mean terminal disposition phase t1/2z ranging approximately from 3.4 to 5.1 hours across all doses. […] Table 5 provides a summary of plasma concentrations of Compound A after a single IV infusion in healthy subjects. Table 6 provides a summary of pharmacokinetic parameters of Compound A after a single IV infusion in healthy subjects.
# [1] = 14 mg, read-out: Plasma concentration, Maximum
# [2] = 14 mg, read-out: Plasma concentration, Mean
# [3] = 14 mg, read-out: Plasma concentration, Median
# [4] = 14 mg, read-out: Plasma concentration, Minimum
# [5] = 14 mg, read-out: Plasma concentration, Q1
# [6] = 14 mg, read-out: Plasma concentration, Q3
# [7] = 28 mg, read-out: Plasma concentration, Maximum
# [8] = 28 mg, read-out: Plasma concentration, Mean
# [9] = 28 mg, read-out: Plasma concentration, Median
# [10] = 28 mg, read-out: Plasma concentration, Minimum
# [11] = 28 mg, read-out: Plasma concentration, Q1
# [12] = 28 mg, read-out: Plasma concentration, Q3
structure (smiles),measurement,setting,value
"COC(=O)N1CCC[C@H](NS(C)(=O)=O)[C@@H]1CO[C@H]1CC[C@@H](c2ccccc2)CC1 [Compound A, methyl (2R,3S)-3-((methylsulfonyl)amino)-2-(((cis-4-phenylcyclohexyl)oxy)methyl)piperidine-1-carboxylate]",concentration at 3 hr,"7 mg, 3 hr, read-out: Plasma concentration, Q1",15.1 ng/mL
same,concentration at 3 h,"7 mg, 3 hr, read-out: Plasma concentration, Q3",18.8 ng/mL
same,concentration at 4 h,"7 mg, 4 hr, read-out: Plasma concentration, Maximum",20.6 ng/mL
same,concentration at 4 h,"7 mg, 4 hr, read-out: Plasma concentration, Mean",15.9 ng/mL
same,concentration at 4 h,"7 mg, 4 hr, read-out: Plasma concentration, Median",15.5 ng/mL
same,concentration at 4 h,"7 mg, 4 hr, read-out: Plasma concentration, Minimum",11.1 ng/mL
same,concentration at 4 hr,"7 mg, 4 hr, read-out: Plasma concentration, Q1",15.2 ng/mL
same,concentration at 4 h,"7 mg, 4 hr, read-out: Plasma concentration, Q3",17.6 ng/mL
same,concentration at 6 h,"7 mg, 6 hr, read-out: Plasma concentration, Maximum",15.9 ng/mL
same,concentration at 6 h,"7 mg, 6 hr, read-out: Plasma concentration, Mean",12.2 ng/mL
same,concentration at 6 h,"7 mg, 6 hr, read-out: Plasma concentration, Median",12.4 ng/mL
same,concentration at 6 h,"7 mg, 6 hr, read-out: Plasma concentration, Minimum",8.82 ng/mL
same,concentration at 6 hr,"7 mg, 6 hr, read-out: Plasma concentration, Q1",11.4 ng/mL
same,concentration at 6 h,"7 mg, 6 hr, read-out: Plasma concentration, Q3",12.5 ng/mL
same,concentration at 8 h,"7 mg, 8 hr, read-out: Plasma concentration, Maximum",16.1 ng/mL
same,concentration at 8 h,"7 mg, 8 hr, read-out: Plasma concentration, Mean",13 ng/mL
same,concentration at 8 h,"7 mg, 8 hr, read-out: Plasma concentration, Median",13.1 ng/mL
same,concentration at 8 h,"7 mg, 8 hr, read-out: Plasma concentration, Minimum",9.5 ng/mL
same,concentration at 8 hr,"7 mg, 8 hr, read-out: Plasma concentration, Q1",12.8 ng/mL
same,concentration at 8 h,"7 mg, 8 hr, read-out: Plasma concentration, Q3",13.4 ng/mL
same,concentration at 9 h,"7 mg, 9 hr, read-out: Plasma concentration, Maximum",15.2 ng/mL
same,concentration at 9 h,"7 mg, 9 hr, read-out: Plasma concentration, Mean",13.5 ng/mL
same,concentration at 9 h,"7 mg, 9 hr, read-out: Plasma concentration, Median",13.9 ng/mL
same,concentration at 9 h,"7 mg, 9 hr, read-out: Plasma concentration, Minimum",10.2 ng/mL
same,concentration at 9 hr,"7 mg, 9 hr, read-out: Plasma concentration, Q1",13.2 ng/mL
same,concentration at 9 h,"7 mg, 9 hr, read-out: Plasma concentration, Q3",15 ng/mL
same,concentration at 0.5 h,[1],27.2 ng/mL
same,concentration at 0.5 h,[2],22.5 ng/mL
same,concentration at 0.5 h,[3],22.1 ng/mL
same,concentration at 0.5 h,[4],18 ng/mL
same,concentration at 0.5 h,[5],21.7 ng/mL
same,concentration at 0.5 h,[6],23.9 ng/mL
same,concentration at 1 h,[1],32.1 ng/mL
same,concentration at 1 h,[2],26.6 ng/mL
same,concentration at 1 h,[3],26.9 ng/mL
same,concentration at 1 h,[4],21.8 ng/mL
same,concentration at 1 h,[5],22.6 ng/mL
same,concentration at 1 h,[6],29.7 ng/mL
same,concentration at 1.5 h,[1],36.1 ng/mL
same,concentration at 1.5 h,[2],30.4 ng/mL
same,concentration at 1.5 h,[3],29 ng/mL
same,concentration at 1.5 h,[4],27.4 ng/mL
same,concentration at 1.5 h,[5],27.6 ng/mL
same,concentration at 1.5 h,[6],33.6 ng/mL
same,concentration at 2 h,"14 mg, 2 hr, read-out: Plasma concentration, Maximum",37.8 ng/mL
same,concentration at 2 h,"14 mg, 2 hr, read-out: Plasma concentration, Mean",32.9 ng/mL
same,concentration at 2 h,"14 mg, 2 hr, read-out: Plasma concentration, Median",32 ng/mL
same,concentration at 2 h,"14 mg, 2 hr, read-out: Plasma concentration, Minimum",29.6 ng/mL
same,concentration at 2 h,"14 mg, 2 hr, read-out: Plasma concentration, Q1",30 ng/mL
same,concentration at 2 h,"14 mg, 2 hr, read-out: Plasma concentration, Q3",35.8 ng/mL
same,concentration at 3 h,"14 mg, 3 hr, read-out: Plasma concentration, Maximum",43.5 ng/mL
same,concentration at 3 h,"14 mg, 3 hr, read-out: Plasma concentration, Mean",35.8 ng/mL
same,concentration at 3 h,"14 mg, 3 hr, read-out: Plasma concentration, Median",34.3 ng/mL
same,concentration at 3 h,"14 mg, 3 hr, read-out: Plasma concentration, Minimum",31.8 ng/mL
same,concentration at 3 h,"14 mg, 3 hr, read-out: Plasma concentration, Q1",32.1 ng/mL
same,concentration at 3 h,"14 mg, 3 hr, read-out: Plasma concentration, Q3",39 ng/mL
same,concentration at 4 h,"14 mg, 4 hr, read-out: Plasma concentration, Maximum",40.4 ng/mL
same,concentration at 4 h,"14 mg, 4 hr, read-out: Plasma concentration, Mean",36.4 ng/mL
same,concentration at 4 h,"14 mg, 4 hr, read-out: Plasma concentration, Median",37 ng/mL
same,concentration at 4 h,"14 mg, 4 hr, read-out: Plasma concentration, Minimum",31 ng/mL
same,concentration at 4 h,"14 mg, 4 hr, read-out: Plasma concentration, Q1",33 ng/mL
same,concentration at 4 h,"14 mg, 4 hr, read-out: Plasma concentration, Q3",40 ng/mL
same,concentration at 6 h,"14 mg, 6 hr, read-out: Plasma concentration, Maximum",35.2 ng/mL
same,concentration at 6 h,"14 mg, 6 hr, read-out: Plasma concentration, Mean",29.3 ng/mL
same,concentration at 6 h,"14 mg, 6 hr, read-out: Plasma concentration, Median",29.7 ng/mL
same,concentration at 6 h,"14 mg, 6 hr, read-out: Plasma concentration, Minimum",23.1 ng/mL
same,concentration at 6 h,"14 mg, 6 hr, read-out: Plasma concentration, Q1",23.9 ng/mL
same,concentration at 6 h,"14 mg, 6 hr, read-out: Plasma concentration, Q3",34.4 ng/mL
same,concentration at 8 h,"14 mg, 8 hr, read-out: Plasma concentration, Maximum",34.4 ng/mL
same,concentration at 8 h,"14 mg, 8 hr, read-out: Plasma concentration, Mean",28.9 ng/mL
same,concentration at 8 h,"14 mg, 8 hr, read-out: Plasma concentration, Median",29.9 ng/mL
same,concentration at 8 h,"14 mg, 8 hr, read-out: Plasma concentration, Minimum",22.6 ng/mL
same,concentration at 8 h,"14 mg, 8 hr, read-out: Plasma concentration, Q1",24.6 ng/mL
same,concentration at 8 h,"14 mg, 8 hr, read-out: Plasma concentration, Q3",32.3 ng/mL
same,concentration at 9 h,"14 mg, 9 hr, read-out: Plasma concentration, Maximum",34.2 ng/mL
same,concentration at 9 h,"14 mg, 9 hr, read-out: Plasma concentration, Mean",30.1 ng/mL
same,concentration at 9 h,"14 mg, 9 hr, read-out: Plasma concentration, Median",30.8 ng/mL
same,concentration at 9 h,"14 mg, 9 hr, read-out: Plasma concentration, Minimum",22.8 ng/mL
same,concentration at 9 h,"14 mg, 9 hr, read-out: Plasma concentration, Q1",28.4 ng/mL
same,concentration at 9 h,"14 mg, 9 hr, read-out: Plasma concentration, Q3",33.5 ng/mL
same,concentration at 0.5 h,[7],48.7 ng/mL
same,concentration at 0.5 hr,[8],34.4 ng/mL
same,concentration at 0.5 hr,[9],32 ng/mL
same,concentration at 0.5 hr,[10],19.1 ng/mL
same,concentration at 0.5 hr,[11],29.6 ng/mL
same,concentration at 0.5 h,[12],42.6 ng/mL
same,concentration at 1 h,[7],51.8 ng/mL
same,concentration at 1 hr,[8],37.9 ng/mL
same,concentration at 1 hr,[9],36.6 ng/mL
same,concentration at 1 hr,[10],21.7 ng/mL
same,concentration at 1 hr,[11],36.5 ng/mL
same,concentration at 1 h,[12],42.8 ng/mL
same,concentration at 1.5 h,[7],55.9 ng/mL
same,concentration at 1.5 hr,[8],44.9 ng/mL
same,concentration at 1.5 h,[9],47.1 ng/mL
same,concentration at 1.5 hr,[10],27.2 ng/mL
same,concentration at 1.5 hr,[11],44.4 ng/mL
same,concentration at 1.5 h,[12],49.9 ng/mL
same,concentration at 2 h,"28 mg, 2 hr, read-out: Plasma concentration, Maximum",58.4 ng/mL
same,concentration at 2 hr,"28 mg, 2 hr, read-out: Plasma concentration, Mean",50.1 ng/mL
same,concentration at 2 h,"28 mg, 2 hr, read-out: Plasma concentration, Median",54.9 ng/mL
